As a reminder, the IC50 is the midpoint of a concentration-inhibition curve.

Consider 19 compounds from patent US8134015B2, “Compound inhibiting in vivo phosphorous transport and medicine containing the same” (Kyowa Hakko Kirin Co., Ltd., priority 2003, dated 2012).

One assay concerns the target T1, rat NaPi-2b (Rattus norvegicus, UniProt Q9JJ09).
T1 construct: expressed in transfected cells; host or cells: Xenopus oocytes injected with cRNA
T1 sequence (Q9JJ09 1-695): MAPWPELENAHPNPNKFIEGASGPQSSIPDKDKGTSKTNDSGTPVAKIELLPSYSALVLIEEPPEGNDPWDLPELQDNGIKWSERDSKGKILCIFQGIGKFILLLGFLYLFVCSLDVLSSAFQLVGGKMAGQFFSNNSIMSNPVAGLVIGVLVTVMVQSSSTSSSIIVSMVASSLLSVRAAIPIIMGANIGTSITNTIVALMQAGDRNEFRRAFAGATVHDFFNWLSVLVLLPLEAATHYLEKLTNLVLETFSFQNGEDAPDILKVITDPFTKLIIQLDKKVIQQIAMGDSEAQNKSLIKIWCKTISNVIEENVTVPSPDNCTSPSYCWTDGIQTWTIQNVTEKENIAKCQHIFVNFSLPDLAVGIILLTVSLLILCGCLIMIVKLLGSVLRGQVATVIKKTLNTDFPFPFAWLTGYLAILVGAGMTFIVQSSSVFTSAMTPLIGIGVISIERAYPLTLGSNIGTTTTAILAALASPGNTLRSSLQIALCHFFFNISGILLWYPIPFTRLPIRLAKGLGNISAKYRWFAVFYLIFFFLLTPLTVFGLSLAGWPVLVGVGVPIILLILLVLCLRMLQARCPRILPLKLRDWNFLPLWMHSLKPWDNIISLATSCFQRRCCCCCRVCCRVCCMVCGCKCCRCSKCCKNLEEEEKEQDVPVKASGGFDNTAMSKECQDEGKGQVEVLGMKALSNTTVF
Description: Sodium-dependent phosphate uptake of Xenopus oocytes which expressed NaPi-2b (32P). Type of assay: cell-based. The note with it: Xenopus oocytes expressing rat NaPi-2b, 32P radioactive phosphorus; read-out: IC50 (phosphate uptake inhibitory activity). The procedure, abridged:
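Oocytes injected with rat NaPi-2b cRNA, cultured 2 d, then 32P uptake measured with compound. Values: % inhibition at 300 and 100 μM, both from one inhibition curve.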

The target in a further assay is T2, human NaPi-2a (Homo sapiens, UniProt Q06495).
T2 construct: expressed in transfected cells
T2 sequence (Q06495 1-639): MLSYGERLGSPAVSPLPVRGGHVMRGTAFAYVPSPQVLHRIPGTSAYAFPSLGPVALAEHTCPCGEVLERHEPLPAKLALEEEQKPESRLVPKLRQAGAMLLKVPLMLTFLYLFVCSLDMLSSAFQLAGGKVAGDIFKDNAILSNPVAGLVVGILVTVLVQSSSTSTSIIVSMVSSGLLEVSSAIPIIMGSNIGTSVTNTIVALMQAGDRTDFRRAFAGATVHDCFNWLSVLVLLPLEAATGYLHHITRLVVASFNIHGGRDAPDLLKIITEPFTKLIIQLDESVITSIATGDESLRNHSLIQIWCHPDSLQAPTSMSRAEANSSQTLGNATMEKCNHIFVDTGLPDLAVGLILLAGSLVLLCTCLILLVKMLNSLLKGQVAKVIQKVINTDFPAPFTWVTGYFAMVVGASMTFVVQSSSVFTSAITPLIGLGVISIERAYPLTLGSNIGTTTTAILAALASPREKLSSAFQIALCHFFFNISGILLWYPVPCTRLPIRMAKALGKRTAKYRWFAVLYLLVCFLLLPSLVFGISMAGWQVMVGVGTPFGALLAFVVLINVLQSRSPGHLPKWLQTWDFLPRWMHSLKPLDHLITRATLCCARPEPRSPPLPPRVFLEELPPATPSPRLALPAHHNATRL
Kind of assay: Sodium-dependent phosphate uptake of Xenopus oocytes which expressed NaPi-2a (32P). Type of assay: cell-based. The note with it: phosphate uptake, Xenopus oocytes expressing human NaPi-2a; five concentration levels. The source says: Experiment of Sodium-Dependent Phosphate Uptake of Xenopus oocytes which Expressed NaPi-2a
In the test, a group with the addition of choline chloride (Choline Cl) was used as a negative control for nonspecific uptake, and PFA (phosphonoformic acid) was used as a positive control for phosphate transport inhibition.

For `CCN(CC)CCSCc1cccc(C(=O)Nc2ccc(N3CCCCC3)cc2C(=O)N/N=C/c2ccc(Cl)c(C(F)(F)F)c2)c1` [Compound 878, N-[2-(4-Chloro-3-trifluoromethyl-benzylidene-hydrazinocarbonyl)-4-piperidin-1-yl-phenyl]-3-(2-diethylamino-ethylsulfanylmethyl)-benzamide], the IC50 on rat NaPi-2b is below 0.3 µM; at human NaPi-2a, 7.22 µM.
The like results for `O=C(Nc1ccc(Br)cc1C(=O)N/N=C/c1ccc(Cl)c(C(F)(F)F)c1)c1ccc(CSc2ccncc2)cc1` [Compound 260, N-[4-Bromo-2-(4-chloro-3-trifluoromethyl-benzylidene-hydrazinocarbonyl)-phenyl]-4-(pyridin-4-ylsulfanylmethyl)-benzamide] were, in that order, below 3 µM and below 3 µM.
The like results for `CC(O)CN(Cc1cccc(C(=O)Nc2sc3c(c2C(=O)N/N=C/c2cccc(F)c2)CCC3)c1)CC(C)O` (centres unmarked) [Compound 806, 3-{[Bis-(2-hydroxy-propyl)-amino]-methyl}-N-[3-(3-fluoro-benzylidene-hydrazinocarbonyl)-5,6-dihydro-4H-cyclopenta[b]thiophen-2-yl]-benzamide] were, in that order, 3.9 µM and 12.1 µM.
The like results for `CC(O)CN(Cc1cccc(C(=O)Nc2sc3c(c2C(=O)N/N=C/c2cccc(F)c2)CCCC3)c1)CC(C)O` (centres unmarked) [Compound 630, 3-{[Bis-(2-hydroxy-propyl)-amino]-methyl}-N-[3-(3-fluoro-benzylidene-hydrazinocarbonyl)-4,5,6,7-tetrahydro-benzo[b]thiophen-2-yl]-benzamide] were, in that order, below 1 µM and 3.5 µM.
In the case of `O=C(Nc1ccc(N2CCCCC2)cc1C(=O)N/N=C/c1ccc(F)cc1)c1cccc(CN2CCc3nc4ncccc4cc3C2)c1` [Compound 895, 3-(7,8-Dihydro-5H-1,6,9-triaza-anthracen-6-ylmethyl)-N-[2-(4-fluoro-benzylidene-hydrazinocarbonyl)-4-piperidin-1-yl-phenyl]-benzamide], the values for the IC50 at rat NaPi-2b and at human NaPi-2a were below 0.3 µM and 5.52 µM, respectively.
The like results for `O=C(Nc1sc2ccccc2c1C(=O)N/N=C/c1cccc(F)c1)c1cccc(CN2CCC(CO)CC2)c1` [Compound 801, N-[3-(3-Fluoro-benzylidene-hydrazinocarbonyl)-benzo[b]thiophen-2-yl]-3-(4-hydroxymethyl-piperidin-1-ylmethyl)-benzamide] were, in that order, 4.7 µM and 3.72 µM.
The like results for `Cc1csc(NC(=O)c2cccc(CN(CC(C)O)CC(C)O)c2)c1C(=O)N/N=C/c1ccc(Cl)c(C(F)(F)F)c1` (centres unmarked) [Compound 591, 3-{[bis-(2-hydroxy-propyl)-amino]-methyl}-N-[3-(4-chloro-3-trifluoromethyl-benzylidene-hydrazinocarbonyl)-4-methyl-thiophen-2-yl]-benzamide] were, in that order, 1.01 µM and 4.04 µM.
The like results for `Cc1csc(NC(=O)c2cccc(CN3CCN(c4ncccn4)CC3)c2)c1C(=O)N/N=C/c1ccc(F)cc1` [Compound 828, N-[3-(4-Fluoro-benzylidene-hydrazinocarbonyl)-4-methyl-thiophen-2-yl]-3-(4-pyrimidin-2-yl-piperazin-1-ylmethyl)-benzamide] were, in that order, 9.33 µM and 10 µM.
For `O=C(Nc1ccc(N2CCCCC2)cc1C(=O)N/N=C/c1ccc(F)cc1)c1cccc(CSCC(O)CO)c1` (centres unmarked) [Compound 901, 3-(2,3-Dihydroxy-propylsulfanylmethyl)-N-[2-(4-fluoro-benzylidene-hydrazinocarbonyl)-4-piperidin-1-yl-phenyl]-benzamide], the IC50 at rat NaPi-2b and against human NaPi-2a was below 1 µM each time.
As to `Cc1ccc(/C=N/NC(=O)c2c(NC(=O)c3cccc(CN4CCC(CO)CC4)c3)sc3c2CCCC3)cc1` [Compound 640, 3-(4-Hydroxymethyl-piperidin-1-ylmethyl)-N-[3-(4-methyl-benzylidene-hydrazinocarbonyl)-4,5,6,7-tetrahydro-benzo[b]thiophen-2-yl]-benzamide], the IC50 on rat NaPi-2b came out at 1.61 µM; on human NaPi-2a, 15.6 µM.
The like results for `O=C(Nc1ccc(N2CCCCC2)cc1C(=O)N/N=C/c1cccc(F)c1)c1cccc(CSCC(O)CO)c1` (centres unmarked) [Compound 902, 3-(2,3-Dihydroxy-propylsulfanylmethyl)-N-[2-(3-fluoro-benzylidene-hydrazinocarbonyl)-4-piperidin-1-yl-phenyl]-benzamide] were, in that order, below 1 µM and below 1 µM.
Take `Cc1ccc(/C=N/NC(=O)c2c(C)csc2NC(=O)c2cccc(CN(CCO)CCO)c2)cc1` [Compound 787, 3-{[Bis-(2-hydroxy-ethyl)-amino]-methyl}-N-[4-methyl-3-(4-methyl-benzylidene-hydrazinocarbonyl)-thiophen-2-yl]-benzamide]: the IC50 was 1.69 µM on rat NaPi-2b and below 3 µM against human NaPi-2a.
The matching figures for `CC(O)CN(Cc1cccc(C(=O)Nc2sc3c(c2C(=O)N/N=C/c2ccc(F)cc2)CCCC3)c1)CC(C)O` (centres unmarked) [Compound 629, 3-{[Bis-(2-hydroxy-propyl)-amino]-methyl}-N-[3-(4-fluoro-benzylidene-hydrazinocarbonyl)-4,5,6,7-tetrahydro-benzo[b]thiophen-2-yl]-benzamide]: 3.01 µM and 12.9 µM.
Take `Cc1ccc(/C=N/NC(=O)c2c(NC(=O)c3cccc(CN(CC(C)O)CC(C)O)c3)sc(C)c2C)cc1` (centres unmarked) [Compound 845, 3-{[Bis-(2-hydroxy-propyl)-amino]-methyl}-N-[4,5-dimethyl-3-(4-methyl-benzylidene-hydrazinocarbonyl)-thiophen-2-yl]-benzamide]: the IC50 on rat NaPi-2b and against human NaPi-2a was below 3 µM each time.
As to `Cc1ccc(/C=N/NC(=O)c2cc(N3CCCCC3)ccc2NC(=O)c2cccc(CSCCC(=O)O)c2)cc1` [Compound 887, 3-{3-[2-(4-Methyl-benzylidene-hydrazinocarbonyl)-4-piperidin-1-yl-phenylcarbamoyl]-benzylsulfanyl}-propionic acid], the results for the half-maximal inhibitory concentration (IC50) on rat NaPi-2b and on human NaPi-2a were 1.75 µM and 15.1 µM, respectively.
Consider `COc1ccc(/C=N/NC(=O)c2c(C)csc2NC(=O)c2cccc(CN(CCO)CCO)c2)cc1` [Compound 791, 3-{[Bis-(2-hydroxy-ethyl)-amino]-methyl}-N-[3-(4-methoxy-benzylidene-hydrazinocarbonyl)-4-methyl-thiophen-2-yl]-benzamide], for which the values for the IC50 at rat NaPi-2b and on human NaPi-2a were 5.5 µM and 6.7 µM, respectively.
The matching figures for `COc1ccc(/C=N/NC(=O)c2cc(N3CCCCC3)ccc2NC(=O)c2cccc(CSCCC(=O)O)c2)cc1` [Compound 890, 3-{3-[2-(4-Methoxy-benzylidene-hydrazinocarbonyl)-4-piperidin-1-yl-phenylcarbamoyl]-benzylsulfanyl}-propionic acid]: 3.91 µM and 1.33 µM.
The matching figures for `Cc1csc(NC(=O)c2cccc(CN3CCN(c4ncccn4)CC3)c2)c1C(=O)N/N=C/c1ccc(Cl)c(C(F)(F)F)c1` [Compound 830, N-[3-(4-Chloro-3-trifluoromethyl-benzylidene-hydrazinocarbonyl)-4-methyl-thiophen-2-yl]-3-(4-pyrimidin-2-yl-piperazin-1-ylmethyl)-benzamide]: 4.81 µM and 10.7 µM.
Regarding `Cc1csc(NC(=O)c2cccc(CN(CCO)CCO)c2)c1C(=O)N/N=C/c1ccc(F)cc1` [Compound 788, 3-{[Bis-(2-hydroxy-ethyl)-amino]-methyl}-N-[3-(4-fluoro-benzylidene-hydrazinocarbonyl)-4-methyl-thiophen-2-yl]-benzamide], the IC50 on rat NaPi-2b is 2.04 µM; against human NaPi-2a it was 6.64 µM.
